Laboratory results reported in the supplement of paper PMC10307832.

Key:
Assay in all cases: relative viability (nuclei count vs DMSO), 5 days (fraction); higher = more cells survive
XMD8-85 + OSI-027 = compound: CN1CCN(CC1)C2=CC(=C(C=C2)NC3=NC=C4C(=N3)N(C5=CC=CC=C5C(=O)N4C)C)OC [XMD8-85] + COc1cccc2cc(-c3nc([C@H]4CC[C@H](C(=O)O)CC4)n4ncnc(N)c34)[nH]c12 [OSI-027] (partner 0.5 µM)
In short: (§1)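 For relative viability, nuclei counts in treated wells were divided by those in vehicle wells. Lung cancer cell lines had been pin-tool dosed in 1536-well plates the day after seeding and cultured for 5 days, then fixed and stained in one step (final 0.05% Triton X-100, 1% formaldehyde, 1 ug/ml Hoechst) and imaged at 4×. Doses were one drug alone or a fixed anchor-drug dose plus five library-drug doses (not always all listed) in √10 steps, and values are duplicate-plate medians.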

XMD8-85 + Pictilisib = compound: CN1CCN(CC1)C2=CC(=C(C=C2)NC3=NC=C4C(=N3)N(C5=CC=CC=C5C(=O)N4C)C)OC [XMD8-85] + CS(=O)(=O)N1CCN(Cc2cc3nc(-c4cccc5[nH]ncc45)nc(N4CCOCC4)c3s2)CC1 [Pictilisib] (partner 1 µM)
In short: as §1

4EGI-1 + Dasatinib = compound: O=C(O)C(Cc1ccccc1[N+](=O)[O-])=NNc1nc(-c2ccc(Cl)c(Cl)c2)cs1 (mixture of isomers) [4EGI-1] + Cc1nc(Nc2ncc(C(=O)Nc3c(C)cccc3Cl)s2)cc(N2CCN(CCO)CC2)n1 [Dasatinib] (partner 0.075 µM)
In short: as §1

4EGI-1 + Lapatinib = compound: O=C(O)C(Cc1ccccc1[N+](=O)[O-])=NNc1nc(-c2ccc(Cl)c(Cl)c2)cs1 (mixture of isomers) [4EGI-1] + CS(=O)(=O)CCNCc1ccc(-c2ccc3ncnc(Nc4ccc(OCc5cccc(F)c5)c(Cl)c4)c3c2)o1 [Lapatinib] (partner 2 µM)
In short: as §1

NCI-H838
relative viability (XMD8-85 + OSI-027; first compound 0.08 µM): 0.386 | relative viability (XMD8-85 + OSI-027; first compound 0.253 µM): 0.463 | relative viability (XMD8-85 + OSI-027; first compound 0.8 µM): 0.343 | relative viability (XMD8-85 + OSI-027; first compound 2.53 µM): 0.346 | relative viability (XMD8-85 + OSI-027; first compound 8 µM): 0.339 | relative viability (XMD8-85 + Pictilisib; first compound 0.08 µM): 0.423 | relative viability (XMD8-85 + Pictilisib; first compound 0.253 µM): 0.455 | relative viability (XMD8-85 + Pictilisib; first compound 0.8 µM): 0.503 | relative viability (XMD8-85 + Pictilisib; first compound 2.53 µM): 0.429 | relative viability (XMD8-85 + Pictilisib; first compound 8 µM): 0.317 | relative viability (4EGI-1 + Dasatinib; first compound 0.5 µM): 0.322 | relative viability (4EGI-1 + Dasatinib; first compound 5 µM): 0.245 | relative viability (4EGI-1 + Dasatinib; first compound 15.81 µM): 0.267 | relative viability (4EGI-1 + Dasatinib; first compound 50 µM): 0.19 | relative viability (4EGI-1 + Lapatinib; first compound 0.5 µM): 1.24 | relative viability (4EGI-1 + Lapatinib; first compound 5 µM): 1.16 | relative viability (4EGI-1 + Lapatinib; first compound 15.81 µM): 0.654 | relative viability (4EGI-1 + Lapatinib; first compound 50 µM): 0.173

NCI-H1355
relative viability (XMD8-85 + OSI-027; first compound 0.08 µM): 0.385 | relative viability (XMD8-85 + OSI-027; first compound 0.253 µM): 0.43 | relative viability (XMD8-85 + OSI-027; first compound 0.8 µM): 0.403 | relative viability (XMD8-85 + OSI-027; first compound 2.53 µM): 0.448 | relative viability (XMD8-85 + OSI-027; first compound 8 µM): 0.309 | relative viability (XMD8-85 + Pictilisib; first compound 0.08 µM): 0.458 | relative viability (XMD8-85 + Pictilisib; first compound 0.253 µM): 0.41 | relative viability (XMD8-85 + Pictilisib; first compound 0.8 µM): 0.485 | relative viability (XMD8-85 + Pictilisib; first compound 2.53 µM): 0.449 | relative viability (XMD8-85 + Pictilisib; first compound 8 µM): 0.33 | relative viability (4EGI-1 + Dasatinib; first compound 0.5 µM): 0.786 | relative viability (4EGI-1 + Dasatinib; first compound 1.581 µM): 0.64 | relative viability (4EGI-1 + Dasatinib; first compound 5 µM): 0.682 | relative viability (4EGI-1 + Dasatinib; first compound 15.81 µM): 0.497 | relative viability (4EGI-1 + Dasatinib; first compound 50 µM): 0.349 | relative viability (4EGI-1 + Lapatinib; first compound 0.5 µM): 1.11 | relative viability (4EGI-1 + Lapatinib; first compound 1.581 µM): 0.931 | relative viability (4EGI-1 + Lapatinib; first compound 5 µM): 1.03 | relative viability (4EGI-1 + Lapatinib; first compound 15.81 µM): 0.989 | relative viability (4EGI-1 + Lapatinib; first compound 50 µM): 0.586

NCI-H1395
relative viability (XMD8-85 + OSI-027; first compound 0.08 µM): 0.754 | relative viability (XMD8-85 + OSI-027; first compound 0.253 µM): 0.64 | relative viability (XMD8-85 + OSI-027; first compound 0.8 µM): 0.667 | relative viability (XMD8-85 + OSI-027; first compound 2.53 µM): 0.664 | relative viability (XMD8-85 + OSI-027; first compound 8 µM): 0.489 | relative viability (XMD8-85 + Pictilisib; first compound 0.08 µM): 0.699 | relative viability (XMD8-85 + Pictilisib; first compound 0.253 µM): 0.649 | relative viability (XMD8-85 + Pictilisib; first compound 0.8 µM): 0.634 | relative viability (XMD8-85 + Pictilisib; first compound 2.53 µM): 0.613 | relative viability (XMD8-85 + Pictilisib; first compound 8 µM): 0.484 | relative viability (4EGI-1 + Dasatinib; first compound 0.5 µM): 0.423 | relative viability (4EGI-1 + Dasatinib; first compound 1.581 µM): 0.471 | relative viability (4EGI-1 + Dasatinib; first compound 5 µM): 0.436 | relative viability (4EGI-1 + Dasatinib; first compound 15.81 µM): 0.442 | relative viability (4EGI-1 + Dasatinib; first compound 50 µM): 0.32 | relative viability (4EGI-1 + Lapatinib; first compound 0.5 µM): 0.975 | relative viability (4EGI-1 + Lapatinib; first compound 5 µM): 1.18 | relative viability (4EGI-1 + Lapatinib; first compound 15.81 µM): 0.832 | relative viability (4EGI-1 + Lapatinib; first compound 50 µM): 0.413

NCI-H1437
relative viability (XMD8-85 + OSI-027; first compound 0.08 µM): 0.862 | relative viability (XMD8-85 + OSI-027; first compound 0.253 µM): 0.876 | relative viability (XMD8-85 + OSI-027; first compound 0.8 µM): 0.902 | relative viability (XMD8-85 + OSI-027; first compound 2.53 µM): 0.852 | relative viability (XMD8-85 + OSI-027; first compound 8 µM): 0.595 | relative viability (XMD8-85 + Pictilisib; first compound 0.08 µM): 0.4 | relative viability (XMD8-85 + Pictilisib; first compound 0.253 µM): 0.376 | relative viability (XMD8-85 + Pictilisib; first compound 0.8 µM): 0.433 | relative viability (XMD8-85 + Pictilisib; first compound 2.53 µM): 0.333 | relative viability (XMD8-85 + Pictilisib; first compound 8 µM): 0.318 | relative viability (4EGI-1 + Dasatinib; first compound 0.5 µM): 0.427 | relative viability (4EGI-1 + Dasatinib; first compound 1.581 µM): 0.409 | relative viability (4EGI-1 + Dasatinib; first compound 5 µM): 0.421 | relative viability (4EGI-1 + Dasatinib; first compound 15.81 µM): 0.232 | relative viability (4EGI-1 + Dasatinib; first compound 50 µM): 0.103 | relative viability (4EGI-1 + Lapatinib; first compound 0.5 µM): 0.914 | relative viability (4EGI-1 + Lapatinib; first compound 1.581 µM): 0.861 | relative viability (4EGI-1 + Lapatinib; first compound 5 µM): 0.671 | relative viability (4EGI-1 + Lapatinib; first compound 15.81 µM): 0.184 | relative viability (4EGI-1 + Lapatinib; first compound 50 µM): 0.127
